Source: patent publication US20140045747A1, “METHODS FOR INCREASING AND MOBILIZING HEMATOPOIETIC STEM CELLS” (Cleveland Biolabs, Inc., priority 2007, published 2014)

How the values were obtained:
[1] = system: hematopoietic stem and progenitor cells in bone marrow; test: Kinetics of HSC number after CBLB612, bone marrow of C57Bl mice (Example 7); format: in vivo
Experimental: (§1) The following mobilization of HSC and progenitor cells from the bone marrow to peripheral blood after CBLB612 injection. […] The doses were calculated as intended dose/kg of average weight. The adjustment of a dose was accomplished by adjusting the concentration of an article for injection while keeping the injection volume constant. According to Table 13, with the exception of the PBS control group 8, all groups received a 5 mg/kg dose of AMD3100 one hour before euthanasia. Control group 7 received a 6.5 mg/kg does of AMD3100. Negative control group 8 received a single SC injection of 200 μl PBS one hour before blood collection. Study groups 1-6 received single SC injections of CBLB12 at 2 mg/kg at different time points prior to blood collection. Positive control group 9 received four daily SC injections of 0.1 mg/kg G-CSF.

[2] = system: hematopoietic stem and progenitor cells in bone marrow; test: CBLB612 dose dependence of HSC number in mouse bone marrow (Example 6); format: in vivo, C57Bl/6NHsd mice; details: average, regimen per group b224: AMD3100 5 mg/kg SC 1 h before euthanasia, G-CSF four daily 0.1 mg/kg SC, 612 1.2 mg/kg SC 72 h
Experimental: (§2) The doses were calculated as intended dose/kg of average weight. The adjustment of a dose was accomplished by adjusting the concentration of an article for injection while keeping the injection volume constant.
(§3) According to Table 9, all groups received a single subcutaneous (SC) injection of 5 mg/kg of AMD3100 one hour before euthanasia. Control group 1 was injected with 5 mg/kg of AMD3100 only. Control group 2 was treated with four daily 0.1 mg/kg SC injections of G-CSF and on the fifth day the mice were injected with AMD3100. Control group 8 consisted of ICR mice and received the same treatment as Control group 2. Study groups 3, 4, 5, and 6 received a single SC injection of CBLB612 at 1.2; 0.4; 0.13; and 0.04 mg/kg doses, respectively, at 72 hours before blood collection. Group 7 received a single SC injection of 1.2 mg/kg CBLB612 at 24 hours before blood collection. Study group 9 was treated with four daily SC injections of 0.1 mg/kg G-CSF, a single SC injection of 1.2 mg/kg CBLB612 at 72 hours before blood collection, and a single SC injection of 5 mg/kg AMD3100 one hour before euthanasia at the fifth day after the first G-CSF injection.

[3] = system: hematopoietic stem and progenitor cells in peripheral blood; test: CBLB612 dose dependence of HSC mobilization, peripheral blood of C57Bl mice (Example 6); format: in vivo; details: C57Bl/6NHsd mice, average, regimen per group b224: AMD3100 5 mg/kg SC 1 h before euthanasia, G-CSF four daily 0.1 mg/kg SC, 612 1.2 mg/kg SC 72 h
Experimental: as §2, §3

[4] = system: hematopoietic stem and progenitor cells in peripheral blood; test: Kinetics of HSC mobilization after CBLB612, peripheral blood of C57Bl mice (Example 7); format: in vivo
Experimental: as §1

[5] = system: C57/B6 mice irradiated with 9 Gy; test: Survival of lethally irradiated mice transfused with PWBC from treated donor mice (Example 2); format: in vivo; details: recipients irradiated 9 Gy, transfused with PWBC from donor mice treated with the compound; 5 mice at Day 0
Experimental: Blood transfused from lipopeptide-treated mice is capable of protecting recipient mice from the effects of radiation. […] To control for the effects of CBLB612, a group of mice was injected daily for four consecutive days with 100 μg/kg G-CSF, or with PBS.
Following the last injection, blood was collected from the treated mice by cardiac puncture and combined for each group (i.e., PBS negative controls, G-CSF positive controls, and CBLB612 experimental). Next, peripheral white blood cells (PWBC) were fractionated, and 200 μL of fractionated PWBC were injected into the tail veins of irradiated recipient mice. The amount of transfused PWBC was equivalent to the amount from one mouse.
Mice from the five test groups (i.e., PBS-, G-CSF-, and CBLB612-treated mouse blood transfusions, no transfusion, and bone marrow injection), previously irradiated with 9 Gy (a lethal dose for C57/B6 mice) for 2 h prior to transfusion, were observed and their survival rate assessed following transfusion.

[6] = AMD3100 5 mg/kg SC 1 h before collection
[7] = AMD3100 + 30%: 6.5 mg/kg SC 1 h before collection

With `c1cc(CN2CCCNCCNCCCNCC2)ccc1CN1CCCNCCNCCCNCC1` [AMD3100] the “7AAD−/LIN− (average number)” value [1, 6] was 2.44 ×10^6, the “KSL (average number)” value [1, 6] was 17184 and the “KSL/CD34+ (average number)” value [1, 6] was 14743. For the same molecule, the “KSL/CD34− (average number)” value [1, 6] was 2689, the “LIN−/kit−/sca1+ (average number)” value [1, 6] was 206061 and the “LIN−/sca1−/kit+ (average number)” value [1, 6] was 163895. For the same molecule, the “total number of cells (average)” value [1, 6] was 4.88 10^7, the “7AAD−/LIN− (average number)” value [1, 7] was 2.26 ×10^6 and the “KSL (average number)” value [1, 7] was 41791. The “KSL/CD34+ (average number)” value [1, 7] was 40873, the “KSL/CD34− (average number)” value [1, 7] was 1084 and the “LIN−/kit−/sca1+ (average number)” value [1, 7] was 148328. For the same molecule, the “LIN−/sca1−/kit+ (average number)” value [1, 7] was 281722, the “total number of cells (average)” value [1, 7] was 3.65 10^7 and the “7AAD−/LIN−” value [2] was 2.39 ×10^6. For the same molecule, the KSL [2] was 1.37 ×10^4, the “KSL/CD34+” value [2] was 1.25 ×10^4 and the “KSL/CD34−” value [2] was 1.24 ×10^3. For the same molecule, the “LIN−/kit−/sca1+” value [2] was 15.74 ×10^4, the “LIN−/sca1−/kit+” value [2] was 13.26 ×10^4 and the “total number of cells” value [2] was 4.47 10^7. For the same molecule, the “7AAD−/LIN−” value [3] was 254725, the KSL [3] was 238 and the “KSL/CD34+” value [3] was 174. The “KSL/CD34−” value [3] was 72, the “LIN−/kit−/sca1+” value [3] was 40971 and the “LIN−/sca1−/kit+” value [3] was 1104. The “total number of WBC” value [3] was 629.95 10^4/ml, the “7AAD−/LIN− (average number)” value [4, 6] was 421616 and the “KSL (average number)” value [4, 6] was 360. For the same molecule, the “KSL/CD34+ (average number)” value [4, 6] was 308, the “KSL/CD34− (average number)” value [4, 6] was 56 and the “LIN−/kit−/sca1+ (average number)” value [4, 6] was 23142. For the same molecule, the “LIN−/sca1−/kit+ (average number)” value [4, 6] was 1932, the “total number of WBC (average)” value [4, 6] was 962.40 10^4/ml and the “7AAD−/LIN− (average number)” value [4, 7] was 302644. The “KSL (average number)” value [4, 7] was 907, the “KSL/CD34+ (average number)” value [4, 7] was 856 and the “KSL/CD34− (average number)” value [4, 7] was 63. The “LIN−/kit−/sca1+ (average number)” value [4, 7] was 30938, the “LIN−/sca1−/kit+ (average number)” value [4, 7] was 1816 and the “total number of WBC (average)” value [4, 7] was 1111.05 10^4/ml.

B1: G-CSF: granulocyte-colony stimulating factor, a cytokine; positive control (protein, UniProt P09919 31-207, looked up)
Granulocyte …: TPLGPASSLPQSFLLKCLEQVRKIQGDGAALQEKLVSECATYKLCHPEELVLLGHSLGIPWAPLSSCPSQALQLAGCLSQLHSGLFLYQGLLQALEGISPELGPTLDTLQLDVADFATTIWQQMEELGMAPALQPTQGAMPAFASAFQRRAGGVLVASHLQSFLEVSYRVLRHLAQP
For B1, the “Number of Surviving Mice, Day 21” value [5] was 5, the “Number of Surviving Mice, Day 22” value [5] was 5 and the “Number of Surviving Mice, Day 23” value [5] was 5. The “Number of Surviving Mice, Day 24” value [5] was 5.
